{"source": "patent US20230085307A1", "about": "“PYRIDAZINONE COMPOUND AND HERBICIDE” (NISSAN CHEMICAL CORPORATION, priority 2019, published 2023)", "key": {"late watergrass [1]": {"system": "late watergrass", "test": "Test Example 1: herbicidal activity, application before weed generation under submerged conditions (Table 16, symbol A)", "format": "in vivo, late watergrass (Echinochloa oryzicola)", "settings": "320 g/ha applied herbicide", "how_it_was_run": "(§1)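 Emulsion formulation, water-diluted to set dose, was put onto the flooded surface (4 cm depth, alluvial soil) the same day weeds were sown and 2.5-leaf rice transplanted. After 3 weeks at 25-30 °C under glass, each species was rated 0 (≤5% kill) to 5 (≥90% kill).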"}, "Japanese bulrush [2]": {"system": "Japanese bulrush", "test": "Test Example 1: herbicidal activity, application before weed generation under submerged conditions (Table 16, symbol B)", "format": "in vivo, Japanese bulrush (Schoenoplectus juncoides)", "settings": "320 g/ha applied herbicide", "how_it_was_run": "as §1"}, "oval-leafed pondweed [3]": {"system": "oval-leafed pondweed", "test": "Test Example 1: herbicidal activity, application before weed generation under submerged conditions (Table 16, symbol C)", "format": "in vivo, oval-leafed pondweed (Monochoria vaginalis)", "settings": "320 g/ha applied herbicide", "how_it_was_run": "as §1"}, "late watergrass [4]": {"system": "late watergrass", "test": "Test Example 2: herbicidal activity, application during weed generation under submerged conditions (Table 17, symbol A)", "format": "in vivo, late watergrass (Echinochloa oryzicola)", "settings": "AAH 320 g/ha; application during weed generation, submerged conditions", "how_it_was_run": "(§2)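 Alluvial soil in Wagner pots was flooded to 4 cm depth and sown with the three weeds together; pots were kept in a greenhouse at 25° C. to 30° C. At the one to two leaf stage, an emulsion formulation diluted in water to a set rate went onto the water surface; scored three weeks later.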"}, "Japanese bulrush [5]": {"system": "Japanese bulrush", "test": "Test Example 2: herbicidal activity, application during weed generation under submerged conditions (Table 17, symbol B)", "format": "in vivo, Japanese bulrush (Schoenoplectus juncoides)", "settings": "AAH 320 g/ha; application during weed generation, submerged conditions", "how_it_was_run": "as §2"}, "oval-leafed pondweed [6]": {"system": "oval-leafed pondweed", "test": "Test Example 2: herbicidal activity, application during weed generation under submerged conditions (Table 17, symbol C)", "format": "in vivo, oval-leafed pondweed (Monochoria vaginalis)", "settings": "AAH 320 g/ha; application during weed generation, submerged conditions", "how_it_was_run": "as §2"}, "barnyard grass [7]": {"system": "barnyard grass", "test": "Test Example 3: herbicidal effect by foliage application, Wagner pot (Table 18, symbol H)", "format": "in vivo, barnyard grass (Echinochloa crus-galli)", "settings": "amount of applied herbicide 320 g/ha", "how_it_was_run": "(§3)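 Plants were sown in alluvial soil held under 0.1–0.5 cm standing water and grown 14 days in a greenhouse at 25–30 °C. An emulsifiable formulation, water-diluted to the set dose, was then sprayed onto the foliage, and effects were scored three weeks later using previously defined criteria.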"}, "Chinese sprangletop": {"system": "Chinese sprangletop", "test": "Test Example 3: herbicidal effect by foliage application, Wagner pot (Table 18, symbol D)", "format": "in vivo, chinese sprangletop (Leptochloa chinensis)", "settings": "amount of applied herbicide 320 g/ha", "how_it_was_run": "as §3"}, "rice flat sedge": {"system": "rice flat sedge", "test": "Test Example 3: herbicidal effect by foliage application, Wagner pot (Table 18, symbol E)", "format": "in vivo, rice flat sedge (Cyperus iria)", "settings": "amount of applied herbicide 320 g/ha", "how_it_was_run": "as §3"}, "southern crabgrass": {"system": "southern crabgrass", "test": "Test Example 4: herbicidal effect by soil treatment (Table 19, symbol F)", "format": "in vivo, southern crabgrass (Digitaria ciliaris)", "settings": "amount of applied herbicide 320 g/ha", "how_it_was_run": "(§4)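 Soil-surface application: an emulsion agent diluted with water to the predetermined dose is sprayed uniformly over seeds lying under roughly 1.5 cm of sterilized diluvial soil. Boxes stay in a greenhouse at 25° C. to 30° C. Three weeks later, each species is graded on previously defined criteria.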"}, "green foxtail": {"system": "green foxtail", "test": "Test Example 4: herbicidal effect by soil treatment (Table 19, symbol G)", "format": "in vivo, green foxtail (Setaria viridis)", "settings": "amount of applied herbicide 320 g/ha", "how_it_was_run": "as §4"}, "barnyard grass [8]": {"system": "barnyard grass", "test": "Test Example 4: herbicidal effect by soil treatment (Table 19, symbol H)", "format": "in vivo, barnyard grass (Echinochloa crus-galli)", "settings": "amount of applied herbicide 320 g/ha", "how_it_was_run": "as §4"}, "wild oat": {"system": "wild oat", "test": "Test Example 4: herbicidal effect by soil treatment (Table 19, symbol I)", "format": "in vivo, wild oat (Avena fatua)", "settings": "amount of applied herbicide 320 g/ha", "how_it_was_run": "as §4"}, "blackgrass": {"system": "blackgrass", "test": "Test Example 4: herbicidal effect by soil treatment (Table 19, symbol J)", "format": "in vivo, blackgrass (Alopecurus myosuroides)", "settings": "amount of applied herbicide 320 g/ha", "how_it_was_run": "as §4"}, "Italian ryegrass": {"system": "Italian ryegrass", "test": "Test Example 4: herbicidal effect by soil treatment (Table 19, symbol K)", "format": "in vivo, Italian ryegrass (Lolium multiflorum)", "settings": "amount of applied herbicide 320 g/ha", "how_it_was_run": "as §4"}, "windgrass": {"system": "windgrass", "test": "Test Example 4: herbicidal effect by soil treatment (Table 19, symbol L)", "format": "in vivo, windgrass (Apera spica-venti)", "settings": "amount of applied herbicide 320 g/ha", "how_it_was_run": "as §4"}, "velvetleaf": {"system": "velvetleaf", "test": "Test Example 4: herbicidal effect by soil treatment (Table 19, symbol M)", "format": "in vivo, velvetleaf (Abutilon theophrasti)", "settings": "amount of applied herbicide 320 g/ha", "how_it_was_run": "as §4"}, "redroot pigweed": {"system": "redroot pigweed", "test": "Test Example 4: herbicidal effect by soil treatment (Table 19, symbol N)", "format": "in vivo, redroot pigweed (Amaranthus retroflexus)", "settings": "amount of applied herbicide 320 g/ha", "how_it_was_run": "as §4"}, "lambsquarters": {"system": "lambsquarters", "test": "Test Example 4: herbicidal effect by soil treatment (Table 19, symbol O)", "format": "in vivo, lambsquarters (Chenopodium album)", "settings": "amount of applied herbicide 320 g/ha", "how_it_was_run": "as §4"}, "chickweed": {"system": "chickweed", "test": "Test Example 4: herbicidal effect by soil treatment (Table 19, symbol P)", "format": "in vivo, common chickweed (Stellaria media)", "settings": "amount of applied herbicide 320 g/ha", "how_it_was_run": "as §4"}, "persian speedwell": {"system": "persian speedwell", "test": "Test Example 4: herbicidal effect by soil treatment (Table 19, symbol R)", "format": "in vivo, Persian speedwell (Veronica persica)", "settings": "amount of applied herbicide 320 g/ha", "how_it_was_run": "as §4"}}}
{"smiles": "Cc1nn(C)c(=O)c(-c2c(-c3ccc(F)c(Cl)c3)sc3ccc(F)cc23)c1O", "note": "[2-352]", "values": [{"measurement": "Herbicidal effect on A: late watergrass (grade 0-5)", "setting": "late watergrass [1]", "value": "3 (Herbicidal rate of 40% or more and less than 70%)"}, {"measurement": "Herbicidal effect on B: Japanese bulrush (grade 0-5)", "setting": "Japanese bulrush [2]", "value": "2 (Herbicidal rate of 20% or more and less than 40%)"}, {"measurement": "Herbicidal effect on C: oval-leafed pondweed (grade 0-5)", "setting": "oval-leafed pondweed [3]", "value": "2 (Herbicidal rate of 20% or more and less than 40%)"}, {"measurement": "herbicidal effect rating, A: late watergrass", "setting": "late watergrass [4]", "value": "0 (Herbicidal rate of 5% or less (almost no effect))"}, {"measurement": "herbicidal effect rating, B: Japanese bulrush", "setting": "Japanese bulrush [5]", "value": "2 (Herbicidal rate of 20% or more and less than 40%)"}, {"measurement": "herbicidal effect rating, C: oval-leafed pondweed", "setting": "oval-leafed pondweed [6]", "value": "0 (Herbicidal rate of 5% or less (almost no effect))"}, {"measurement": "herbicidal effect on H: barnyard grass", "setting": "barnyard grass [7]", "value": "5 (Herbicidal rate of 90% or more (almost completely withered))"}, {"measurement": "herbicidal effect on D: Chinese sprangletop", "setting": "Chinese sprangletop", "value": "5 (Herbicidal rate of 90% or more (almost completely withered))"}, {"measurement": "herbicidal effect on E: rice flat sedge", "setting": "rice flat sedge", "value": "5 (Herbicidal rate of 90% or more (almost completely withered))"}, {"measurement": "herbicidal effect, F: southern crabgrass", "setting": "southern crabgrass", "value": "2 (Herbicidal rate of 20% or more and less than 40%)"}, {"measurement": "herbicidal effect, G: green foxtail", "setting": "green foxtail", "value": "4 (Herbicidal rate of 70% or more and less than 90%)"}, {"measurement": "herbicidal effect, H: barnyard grass", "setting": "barnyard grass [8]", "value": "3 (Herbicidal rate of 40% or more and less than 70%)"}, {"measurement": "herbicidal effect, I: wild oat", "setting": "wild oat", "value": "0 (Herbicidal rate of 5% or less (almost no effect))"}, {"measurement": "herbicidal effect, J: blackgrass", "setting": "blackgrass", "value": "0 (Herbicidal rate of 5% or less (almost no effect))"}, {"measurement": "herbicidal effect, K: Italian ryegrass", "setting": "Italian ryegrass", "value": "4 (Herbicidal rate of 70% or more and less than 90%)"}, {"measurement": "herbicidal effect, L: windgrass", "setting": "windgrass", "value": "0 (Herbicidal rate of 5% or less (almost no effect))"}, {"measurement": "herbicidal effect, M: velvetleaf", "setting": "velvetleaf", "value": "3 (Herbicidal rate of 40% or more and less than 70%)"}, {"measurement": "herbicidal effect, N: redroot pigweed", "setting": "redroot pigweed", "value": "5 (Herbicidal rate of 90% or more (almost completely withered))"}, {"measurement": "herbicidal effect, O: lambsquarters", "setting": "lambsquarters", "value": "4 (Herbicidal rate of 70% or more and less than 90%)"}, {"measurement": "herbicidal effect, P: chickweed", "setting": "chickweed", "value": "3 (Herbicidal rate of 40% or more and less than 70%)"}, {"measurement": "herbicidal effect, R: persian speedwell", "setting": "persian speedwell", "value": "4 (Herbicidal rate of 70% or more and less than 90%)"}]}
